# Patent US9011816B2, “Fibronectin targeting contrast agent” (Case Western Reserve University, priority 2011, dated 2015)
# Assays:
# [1] = system: atherosclerotic ApoE-deficient mice; test: in vivo MR imaging in atherosclerotic ApoE-deficient mice; settings: images at baseline and in fifteen minute intervals up to sixty minutes after injection, versus scrambled peptides and Magnevist
# Excerpt: An atherosclerotic mice model was run with 12 week old Apoe knockout mice (B6.129P2 Apotem1UNC/J) and control mice (C57BL/J6) were purchased from Jackson Lab. Apoe knockout mice were fed with a high fat diet (60% fat) after arriving and were maintained for 6 months. Control mice were fed with a normal diet (6% fat).
# FIG. 1 illustrates in vivo MR images acquired in atherosclerotic ApoE-deficient mice before and after injection of targeted CLTI-(DOTA-Gd)4 or CREKA-(DOTA-Gd)4 and non-targeted controls. Arrows point to atherosclerotic aorta and insets are enlargements of aorta. The images show a baseline image at zero minutes before an injection of contrast agent. The images progress to injection and in fifteen minute intervals up to sixty minutes. The images illustrate targeted peptides, scrambled peptides, and Magnevist.
# [2] = system: orthotopic 4T1 breast tumor; test: in vivo T1-weighted MR imaging of orthotopic 4T1 breast tumor in BALB/c mice; settings: BALB/c mice bearing orthotopic 4T1 breast tumor; 0.03 mmol-Gd/kg; T1 weighted axial 2D gradient images; versus non-targeted scrambled CLT1-(DOTA-Gd)4
# Procedure: A […] breast tumor model was also run. A 4T1 cell line was cultured using ATCC complete growth medium. Female Balb/c mice (4-6 weeks old) were purchased from Jackson Lab. The suspension of 4T1 cells in PBS was mixed with Matrigel matrix at 1:1 ratio. The mixture (2×10^6 cells, 100 μL) was surgically implanted in the mammary pad of a mouse when a mouse was approximately 8-10 weeks old.
# FIG. 2 illustrates T1-weighted axial 2D gradient images of […] breast cancer tumor. Both CLT1-(DOTA-Gd)4 and non-targeted scrambled CLT1-(DOTA-Gd)4 were investigated in […] BALB/c mice bearing orthotopic 4T1 […] breast tumor. […] The images in row (A) of the targeted CLT1-(DOTA-Gd)4. Images in row (A) illustrate a time sequence of the targeted CLT1-(DOTA-Gd)4. Images in row (B) illustrate the time sequence for non-targeted CLT1-(DOTA-Gd)4.
# [3] = system: orthotopic human prostate tumor; test: in vivo MR imaging of orthotopic human prostate tumor in nu/nu nude athymic mice; settings: nu/nu nude athymic mice bearing orthotopic human prostate tumor; 0.03 mmol-Gd/kg; versus non-targeted scrambled CLT1-(DOTA-Gd)4
# Procedure: In animal tumor models […] athymic nu/nu mice (4-6 weeks old), were purchased from the Animal Resource Center (ARC) of Case Western Reserve Universitey. A suspension of PC3 with GFP cells (PC3-GFP) were harvested and suspended in a sterile phosphate-buffered saline solution. The mixture (5×10^5 cells, 25 μL) was surgically inoculated into the ventral prostate through the dorsal prostate.
# FIG. 3 illustrates an enhancement ratio and a signal to noise ratio of the targeted CLT1-(DOTA-Gd)4 and non-targeted scrambled CLT1-(DOTA-Gd)4. The MRI contrast agents, targeted CLT1-(DOTA-Gd)4 and non-targeted scrambled CLT1-(DOTA-Gd)4 were administer at 0.03 mmol-Gd/kg in nu/nu nude athymic mice (n=4) bearing orthotopic human prostate tumor.
substance,measurement,setting,value
CLT1-PEG-(Lys)3-(DOTA-Gd)4 [CLT1-(DOTA-Gd)4],MR contrast enhancement (FIG. 1),[1],greater and longer enhancement in tumor tissue compared to non-targeted scrambled peptides and controls
same,MR contrast enhancement in tumor tissue (FIG. 2),[2],greater and longer enhancement in tumor tissue compared to non-targeted scrambled CLT1-(DOTA-Gd)4
same,"signal intensity within the tumor tissue (enhancement ratio, signal to noise ratio; FIG. 3)",[3],greater enhancement than non-target agents
